Reference: patent publication US20150224202A1, “FORMULATIONS AND USES FOR MICROPARTICLE DELIVERY OF ZINC PROTOPORPHYRINS” (priority 2014, published 2015)

Tests used:
newborn rhesus monkeys = test: Hemolytic jaundice model, newborn rhesus monkeys treated with heat-damaged erythrocytes; assay type: in vivo, rhesus monkey
From the text: However, ZnPP has been troublesome to maintain in solution and is not orally absorbed, requiring parenteral administration.

3-day-old mouse pups = test: Effect of light exposure on metalloporphyrin-treated newborn mice (chemical toxicity and phototoxicity); details: for chemical toxicity / phototoxicity, summary: 3.75 to 30.0 μmol/kg BW IP; for LD50 (50% lethal dose), exposed to light: fluorescent light (2 cool white, 1 blue tube) 3 hours
Description: FIG. 2 includes three panels ((A), (B), and (C)), showing the experimental setup for phototoxicity studies. 3-day-old pups (magnified in panel (A)) were given vehicle or Mp IP at doses ranging from 3.75 to 30 μmol/kg body weight (BW) and then exposed for 3 hours to fluorescent light consisting of 2 cool white and 1 blue tubes (as shown in panel (B)) emitting an irradiance of 35.0±1.0 μW/cm^2/nm as measured by a BiliBlanket II Meter (as depicted in panel (C)).
Effect of light exposure on metalloporphyrin-treated newborn mice. […] Pups were either kept in the dark (controls) or exposed to fluorescent light composed of two cool white tubes (F20T12cW) and one blue (TL20W/52) tube for 3 hours (FIG. 2).

heme oxygenase (HO) = test: HO activity inhibition in ZnBG-treated 3-day-old pups (FIG. 3); assay type: in vivo, mouse
[1] = after exposure to fluorescent light

Row | Compound | tissue targeting of HO inhibition (newborn rhesus monkeys; 40 μmol/kg BW SC) | time to reduce carboxyhemoglobin and total bilirubin levels to baseline levels (newborn rhesus monkeys; 40 μmol/kg BW subcutaneously (SC)) [h] | chemical toxicity / phototoxicity, summary (3-day-old mouse pups) | LD50 (50% lethal dose), exposed to light (3-day-old mouse pups; IP, 3-day-old mouse pups) [µmol/kg] | LD50 (50% lethal dose), kept in the dark (3-day-old mouse pups; IP, 3-day-old mouse pups, kept in the dark) [µmol/kg] | lethality under blue LED light (3-day-old mouse pups; 30 μmol/kg BW, blue light-emitting diode (LED) light) | chemical toxicity, kept in the dark (3-day-old mouse pups; 30 μmol/kg, kept in the dark) | doses at which gross histologic skin changes developed (3-day-old mouse pups; 6 days after light exposure) [μmol/kg BW] | aspartate aminotransaminase (AST) levels (3-day-old mouse pups; [1]) | body weight after exposure to light (3-day-old mouse pups; [1]) | creatine kinase (CK-MB) levels (3-day-old mouse pups; [1]) | liver antioxidant capacities (3-day-old mouse pups; [1]) | inhibited HO activity (heme oxygenase (HO); 3.75 μmol ZnBG/kg BW) | doses retaining maximal HO inhibitory potency without photosensitizing effects (heme oxygenase (HO); FIG. 3) [μmol/kg BW]
1 | C=CC1=C(C)c2cc3[n-]c(cc4nc(cc5[n-]c(cc1n2)c(C)c5C=C)C(C)=C4CCC(=O)O)c(CCC(=O)O)c3C.[Zn+2] [ZnPP, Zinc protoporphyrin] | targeted to the liver and spleen, without affecting the kidney or brain | ≤ 24 | – | – | – | – | – | – | – | – | – | – | – | –
2 | chromium mesoporphyrin [CrMP] | – | – | has a chemical toxicity, but no phototoxicity | 23.0 | 21.5 | – | – | – | – | – | – | – | – | –
3 | zinc bis glycol porphyrin [ZnBG] | – | – | has no chemical toxicity, but a phototoxicity that is dependent on the light source | 19.5 | – | no lethality was observed | did not show any chemical toxicity | > 7.5 | increases | significant weight loss | increases | decreases | up to 75% | < 3.75
